Measured values published in patent US8263538B2, “Personal wash cleanser with mild surfactant systems comprising defined alkanoyl compounds and defined fatty acyl isethionate surfactant product” (priority 2010, dated 2012).

System: intrascapular area of the back
Test: 14-day cumulative irritation Patch Test (occlusive patch, cleansers diluted to 25% w/w)
Conditions: for Patch test Total irritation score: higher score = more irritating
Procedure: This was randomized, double-blind study. A sufficient number of subjects were recruited to ensure that 25 subjects completed the study. The 14-day cumulative irritation test was conducted as follows. Patching occurred for 14 consecutive days, except on Sundays. Patches applied on Saturday were left in place until Monday, when freshly prepared patches were applied. The designated patch test sites were approximately 2 cm×2 cm on the intrascapular area of the back. Approximately 0.2 mL of the test product was placed onto a Parke-Davis Readi-Bandage® occlusive patch that measured 2 cm×2 cm. Solutions were made by diluting the cleansers to 25% w/w in distilled water. The patch was then applied to the designated test site. The patches were secured with hypoallergenic tape (Scanpor {Allerderm} as needed). A 0.5% sodium dodecyl sulfate (SDS) solution was used as the control in the test.
Each day following application, the patches were removed, the sites evaluated and identical patches reapplied to the same test sites. All evaluations were made using the following 6-point scoring system: • 0=No evidence of any effect • +=Barely perceptible (minimal, faint, uniform or spotty erythema) numerically equivalent to 0.5 • 1=Mild (pink, uniform erythema covering most of the contact site) • 2=Moderate (pink-red, erythema uniform in the entire contact site) • 3=Marked (bright red erythema with/without petechiae or papules) • 4=Severe (deep red erythema with/without vesiculation or weeping)
If a dermal reaction of 3 or 4 occur with any of the test articles at any point during the study, further patch testing on that subject was terminated at the test site involved, and the attained score was assigned to that site for the subsequent scheduled test days.
Cumulative irritation scores, which were the sum of the numerical irritation grades assigned daily during the 14-day test period, were calculated at the end of the study to compare mildness of the test products. […] The data were statistically analyzed using Tukey-Kramer Comparison, and statistical significance was determined at the 95% confidence level.

[1] = first series of Table 1 (0.5% SDS control = 783)
[2] = second series of Table 1 (0.5% SDS control = 912)

CCCCCCCCCCCCOS(=O)(=O)[O-].[Na+] [0.5% SDS Solution, sodium dodecyl sulfate]
Total irritation score compared to 0.5% SDS solution [1]: 100%
Patch test Total irritation score [1]: 783
Total irritation score compared to 0.5% SDS solution [2]: 100%
Patch test Total irritation score [2]: 912
